Series [1] has as its target HIV-1 RT enzyme (wild-type) (Human immunodeficiency virus type 1 group M subtype B, UniProt P04585). The experiment in a line: ECL assay for inhibition of HIV reverse transcriptase (WT). It counts as biochemical. As for the experimental part: (§1) 100 μL reaction mixtures were initiated with a combination of primer-template substrate (10 nM final concentration) and dNTPs (0.6 μM dNTPs, 1.25 μM BrdUTP). The heterodimeric nucleic acid substrate was generated by annealing the DNA primer pD500 (described in Shaw-Reid et al., J. Biol. Chem., 278: 2777-2780; obtained from Integrated DNA Technologies) to t500, a 500 nucleotide RNA template created by in vitro transcription (see Shaw-Reid et al., J. Biol. Chem., 278: 2777-2780). After 1 hour incubation at 37° C., reactions were quenched by 10 μL of 1 N NaOH. Microtiter plates were incubated for an additional 30 minutes at room temperature and then neutralized with 10 μL of 1 N HCl. A mixture of detection buffer containing ruthenylated anti-BrdU antibody and streptavidin coated magnetic beads were added to the plate and incubated at room temperature for 1.5 hours prior to quantification via electrochemiluminescence instrument.

Series [2] has as its target T1, HIV reverse transcriptase with the K103N mutation (Human immunodeficiency virus type 1 group M subtype B, UniProt P04585, K690N).
T1 construct: made in house
The experiment in a line: ECL assay for inhibition of mutant HIV reverse transcriptase (K103N). Type of series: biochemical, HIV-1. As for the experimental part:
as §1
(§2) Analogous assays were conducted substituting mutant HIV strains to determine the […] inhibition of compounds of the present invention against mutant HIV reverse transcriptase. In one strain the reverse transcriptase has the Y181C mutation and in the other strain the reverse transcriptase has the K103N mutation. The mutations were generated with the […] site-directed mutagenesis kit (Stratagene).

The target in series [3] is T2, HIV reverse transcriptase with the Y181C mutation (Human immunodeficiency virus type 1 group M subtype B, UniProt P04585, Y768C).
T2 construct: made in house
Nature of the series: ECL assay for inhibition of mutant HIV reverse transcriptase (Y181C). It counts as biochemical, HIV-1. On the procedure: as §1, §2

The subject of series [4] is wild type HIV-1. Nature of the series: Spread assay: inhibition of acute HIV-1 infection of T-lymphoid cells (WT). Type of series: cell-based. Conditions: Human immunodeficiency virus 1, T-lymphoid, read-out: Spread (WT) CIC95 (10% FBS). As for the experimental part:
(§3) Assays for the inhibition of acute HIV-1 infection of T-lymphoid cells (alternatively referred to herein as the “spread assay”) were conducted in accordance with Vacca, J. P. et al., Proc. Natl. Acad. Sci. USA 1994, 91: 4096. The assays tested for inhibition of wild type HIV-1 and of HIV strains containing the Y181C or K103N mutation. […] Table C also reports the CIC95 values of certain of the title compounds of Examples 1-25 obtained in the assays employing the Y181C mutant strain and the K103N mutant strain.

Series [5] deals with HIV strain containing the K103N mutation. Nature of the series: Spread assay: inhibition of acute HIV-1 infection of T-lymphoid cells (K103N). It counts as cell-based. Conditions: Human immunodeficiency virus 1, T-lymphoid, read-out: Spread (K103N) CIC95 (10% FBS). As for the experimental part:
as §3

Series [6] relates to HIV strain containing the Y181C mutation. The experiment in a line: Spread assay: inhibition of acute HIV-1 infection of T-lymphoid cells (Y181C). The settings on record: Human immunodeficiency virus 1, T-lymphoid, read-out: Spread (Y181C) CIC95 (10% FBS). Type of series: cell-based. As for the experimental part:
as §3

Series [7] concerns T-lymphoid cells. Type of series: cell-based. As for the experimental part: Cytotoxicity was determined by microscopic examination of the cells in each well in the spread assay, wherein a trained analyst observed each culture for any of the following morphological changes as compared to the control cultures: pH imbalance, cell abnormality, cytostatic, cytopathic, or crystallization (i.e., the compound is not soluble or forms crystals in the well). The toxicity value assigned to a given compound is the lowest concentration of the compound at which one of the above changes is observed.

The mark [8] stands for this setting: wild-type HIV-1 RT, read-out: ECL Assay (WT) IC50.
Where [9] appears, read: K103N mutant RT, read-out: ECL Assay (K103N) IC50.
Setting [10] is: Y181C mutant RT, read-out: ECL Assay (Y181C) IC50.

SMILES strings stand for the structures. Counter-ions that a name gives are not always drawn. Like-named read-outs stand apart in the source and are kept apart here. Where only a bound is given, the exact number is not on record here.

Consider 13 molecules from patent US8404856B2, “Non-nucleoside reverse transcriptase inhibitors” (Merck Sharp & Dohme Corp., priority 2007, dated 2013).

Broadly, the IC50 is the concentration that gives 50% inhibition. For the molecule `N#Cc1cc(Cl)cc(Oc2cc(CCc3n[nH]c4ncccc34)[nH]c(=O)c2Cl)c1` [Compound 3-8, 3-chloro-5-({3-chloro-2-oxo-6-[2-(1H-pyrazolo[3,4-b]pyridin-3-yl)ethyl]-1,2-dihydropyridin-4-yl}oxy)benzonitrile], the IC50 in series [1] (setting [8]) is 1.9 nM; in series [2] (setting [9]) it was 4.7 nM; in series [3] (setting [10]) it was 3 nM. Moreover, the IC95 in series [4] (wild type HIV-1, 10% FBS) came to 7 nM; in series [5], 31 nM; in series [6] it was 19 nM. The “Cytotoxicity: no cytotoxicity at concentrations up to” value (“Cytotoxicity: no cytotoxicity” below) in series [7] is on record as more than 833 nM.
Consider `N#Cc1cc(Cl)cc(Oc2cc(CCc3n[nH]c4ncccc34)[nH]c(=O)c2)c1` [Compound 3-9, 3-chloro-5-({2-oxo-6-[2-(1H-pyrazolo[3,4-b]pyridin-3-yl)ethyl]-1,2-dihydropyridin-4-yl}oxy)benzonitrile], for which the IC50 in series [1] (setting [8]) worked out at 3.8 nM; in series [2] (setting [9]), 32 nM; in series [3] (setting [10]), 11 nM. Also, the IC95 in series [4] (wild type HIV-1, 10% FBS) is 55 nM; in series [5], 320 nM; in series [6], 360 nM. The “Cytotoxicity: no cytotoxicity” value in series [7] is more than 833 nM.
For `N#Cc1cc(Cl)cc(Oc2cc(CCc3n[nH]c4nc(N)ccc34)[nH]c(=O)c2Cl)c1` [Compound 4-4, 3-({6-[2-(6-amino-1H-pyrazolo[3,4-b]pyridin-3-yl)ethyl]-3-chloro-2-oxo-1,2-dihydropyridin-4-yl}oxy)-5-chlorobenzonitrile], the IC50 in series [1] (setting [8]) stood at 1.6 nM; in series [2] (setting [9]), 14 nM; in series [3] (setting [10]), 7.9 nM. The IC95 in series [4] (wild type HIV-1, 10% FBS) was 39 nM; in series [5] it was 207 nM; in series [6], 438 nM. Moreover, the “Cytotoxicity: no cytotoxicity” value in series [7] is more than 833 nM.
`N#Cc1cc(Cl)cc(Oc2c(F)c(NCc3n[nH]c4ncccc34)nc(F)c2Cl)c1` [Compound 10-4, 3-chloro-5-({3-chloro-2,5-difluoro-6-[(1H-pyrazolo[3,4-b]pyridin-3-ylmethyl)amino]pyridin-4-yl}oxy)benzonitrile]: the IC50 in series [1] (setting [8]) was found to be 0.5 nM; in series [2] (setting [9]) it was 3.2 nM; in series [3] (setting [10]), 0.6 nM. Further, the IC95 in series [4] (wild type HIV-1, 10% FBS) was 28 nM; in series [5], 62 nM; in series [6], 46 nM. Also, the “Cytotoxicity: no cytotoxicity” value in series [7] is given as more than 833 nM.
`N#Cc1cc(Cl)cc(Oc2c(C(F)(F)F)ccn(Cc3n[nH]c4ncccc34)c2=O)c1` [Compound 13-2, 3-chloro-5-{[2-oxo-1-(1H-pyrazolo[3,4-b]pyridin-3-ylmethyl)-4-(trifluoromethyl)-1,2-dihydropyridin-3-yl]oxy}benzonitrile]: the IC50 is 1.6 nM in series [1] (setting [8]), 2.6 nM in series [2] (setting [9]) and 2 nM in series [3] (setting [10]). In addition, the IC95 was 4 nM in series [4] (wild type HIV-1, 10% FBS); 6 nM in series [5]; 8 nM in series [6]. Moreover, in series [7], the “Cytotoxicity: no cytotoxicity” value is recorded as more than 833 nM.
With `NS(=O)(=O)c1ccc(NC(=O)Cn2ccc(C(F)(F)F)c(Oc3cc(Cl)cc(Br)c3)c2=O)c(Cl)c1` [Compound 16, N-[4-(aminosulfonyl)-2-chlorophenyl]-2-[3-(3-bromo-5-chlorophenoxy)-2-oxo-4-(trifluoromethyl)pyridin-1(2H)-yl]acetamide], the figures for the IC50 in series [1] (setting [8]), in series [2] (setting [9]) and in series [3] (setting [10]) were 1.9 nM, 2.8 nM and 2.6 nM, respectively. The IC95 in series [4] (wild type HIV-1, 10% FBS) is 8 nM; in series [5], 21 nM; in series [6], 30 nM. Besides, the “Cytotoxicity: no cytotoxicity” value in series [7] was more than 833 nM.
For the molecule `N#Cc1cc(Cl)cc(Oc2c(C(F)(F)F)ccn(Cc3n[nH]c4nc(N)ccc34)c2=O)c1` [Compound 17-2, 3-{[3-(3-chloro-5-cyanophenoxy)-2-oxo-4-(trifluoromethyl)pyridin-1(2H)-yl]methyl}-1H-pyrazolo[3,4-b]pyridin-6-aminium trifluoroacetate], the results for the IC50 in series [1], in series [2] and in series [3] were 1.9 nM, 3.1 nM and 2.4 nM, respectively. The IC95 in series [4] came to 6 nM; in series [5], 11 nM; in series [6], 42 nM. Further, the “Cytotoxicity: no cytotoxicity” value in series [7] is more than 833 nM.
As to `N#Cc1cc(C#N)cc(Oc2c(C(F)(F)F)ccn(Cc3n[nH]c4ncccc34)c2=O)c1` [Compound 18-4, 5-{[2-oxo-1-(1H-pyrazolo[3,4-b]pyridine-3-ylmethyl)-4-(trifluoromethyl)-1,2-dihydropyridin-3-yl]oxy}isophthalonitrile], the IC50 turned out to be 3.4 nM in series [1] (setting [8]), 5.1 nM in series [2] (setting [9]) and 4.1 nM in series [3] (setting [10]). Moreover, the IC95 in series [4] (wild type HIV-1, 10% FBS) turned out to be 7 nM; in series [5], 6 nM; in series [6], 8 nM. For the same molecule, the “Cytotoxicity: no cytotoxicity” value in series [7] is recorded as more than 833 nM.
For the molecule `O=c1c(Oc2cc(Cl)cc(Cl)c2)c(C(F)(F)F)ccn1Cc1n[nH]c2ncccc12` [Compound 19-4, 3-(3,5-dichlorophenoxy)-1-(1H-pyrazolo[3,4-b]pyridin-3-ylmethyl)-4-(trifluoromethyl)pyridin-2(1H)-one], the IC50 was found to be 1.1 nM in series [1] (setting [8]), 2.1 nM in series [2] (setting [9]) and 1.5 nM in series [3] (setting [10]). For the same molecule, the IC95 worked out at 9 nM in series [4] (wild type HIV-1, 10% FBS); 21 nM in series [5]; 48 nM in series [6]. Moreover, the “Cytotoxicity: no cytotoxicity” value in series [7] is more than 833 nM.
On to `Cl.Nc1ccc2c(Cn3ccc(C(F)(F)F)c(Oc4cc(Cl)cc(Cl)c4)c3=O)n[nH]c2n1` [Compound 20-3, 3-{[3-(3,5-dichlorophenoxy)-2-oxo-4-(trifluoromethyl)pyridin-1(2H)-yl]methyl}-1H-pyrazolo[3,4-b]pyridin-6-aminium chloride], for which the IC50 in series [1] is 1.6 nM; in series [2], 5.9 nM; in series [3], 1.6 nM. Besides, the IC95 was found to be 20 nM in series [4] (wild type HIV-1, 10% FBS); 87 nM in series [5]; 169 nM in series [6]. The “Cytotoxicity: no cytotoxicity” value in series [7] is more than 833 nM.
For `N#Cc1cc(Cl)cc(Oc2c(Cl)ccn(Cc3n[nH]c4nc(N)ccc34)c2=O)c1.O=C(O)C(F)(F)F` [Compound 22, 3-({1-[(6-amino-1H-pyrazolo[3,4-b]pyridin-3-yl)methyl]-4-chloro-2-oxo-1,2-dihydropyridin-3-yl}oxy)-5-chlorobenzonitrile trifluoroacetate], the IC50 in series [1] is 1.3 nM; in series [2], 2.1 nM; in series [3], 1.8 nM. Besides, the IC95 in series [4] (wild type HIV-1, 10% FBS) is 2 nM; in series [5], 7 nM; in series [6] it was 63 nM. The “Cytotoxicity: no cytotoxicity” value in series [7] was more than 833 nM.
As for `N#Cc1cc(Cl)cc(Oc2c(Cl)c(Cl)cn(Cc3n[nH]c4ncccc34)c2=O)c1` [Compound 23-2, 3-chloro-5-{[4,5-dichloro-2-oxo-1-(1H-pyrazolo[3,4-b]pyridin-3-ylmethyl)-1,2-dihydropyridin-3-yl]oxy}benzonitrile], the IC50 in series [1] (setting [8]) came to 0.96 nM; in series [2] (setting [9]), 1.6 nM; in series [3] (setting [10]) it was 1.3 nM. The IC95 in series [4] (wild type HIV-1, 10% FBS) was determined as 5 nM; in series [5], 11 nM; in series [6], 15 nM. For the same molecule, the “Cytotoxicity: no cytotoxicity” value in series [7] is more than 833 nM.
For the molecule `N#Cc1cc(Cl)cc(Oc2cc(Cc3n[nH]c4ncccc34)[nH]c(=O)c2Cl)c1` [Compound 24-7, 3-Chloro-5-{[3-chloro-2-oxo-6-(1H-pyrazolo[3,4-b]pyridin-3-ylmethyl)-1,2-dihydropyridin-4-yl]oxy}benzonitrile], the IC50 in series [1] (setting [8]) is 0.9 nM; in series [2] (setting [9]) it was 1.7 nM; in series [3] (setting [10]), 1 nM. Moreover, the IC95 came to 2.4 nM in series [4] (wild type HIV-1, 10% FBS); 13 nM in series [5]; 6.6 nM in series [6]. For the same molecule, in series [7], the “Cytotoxicity: no cytotoxicity” value is reported as more than 833 nM.
